Test results taken from US20240269139A1, “COMPOUNDS FOR TARGETED PROTEIN DEGRADATION OF KINASES” (DANA-FARBER CANCER INSTITUTE, INC., priority 2020, published 2024).
Like-named read-outs stand apart in the source and are kept apart here.

Assays:
Type in all cases: cell-based
[1] = target: protein kinases (human kinome) (Homo sapiens, UniProt P53671); conditions: for logFC LIMK2: LIMK2 (P53671), down; for logFC of LIMK2: LIMK2 P53671
[2] = target: T1, protein kinases (human kinome) (Homo sapiens, UniProt Q9NYY8); conditions: Experiment wp137; direction down
T1 sequence (Q9NYY8 1-710): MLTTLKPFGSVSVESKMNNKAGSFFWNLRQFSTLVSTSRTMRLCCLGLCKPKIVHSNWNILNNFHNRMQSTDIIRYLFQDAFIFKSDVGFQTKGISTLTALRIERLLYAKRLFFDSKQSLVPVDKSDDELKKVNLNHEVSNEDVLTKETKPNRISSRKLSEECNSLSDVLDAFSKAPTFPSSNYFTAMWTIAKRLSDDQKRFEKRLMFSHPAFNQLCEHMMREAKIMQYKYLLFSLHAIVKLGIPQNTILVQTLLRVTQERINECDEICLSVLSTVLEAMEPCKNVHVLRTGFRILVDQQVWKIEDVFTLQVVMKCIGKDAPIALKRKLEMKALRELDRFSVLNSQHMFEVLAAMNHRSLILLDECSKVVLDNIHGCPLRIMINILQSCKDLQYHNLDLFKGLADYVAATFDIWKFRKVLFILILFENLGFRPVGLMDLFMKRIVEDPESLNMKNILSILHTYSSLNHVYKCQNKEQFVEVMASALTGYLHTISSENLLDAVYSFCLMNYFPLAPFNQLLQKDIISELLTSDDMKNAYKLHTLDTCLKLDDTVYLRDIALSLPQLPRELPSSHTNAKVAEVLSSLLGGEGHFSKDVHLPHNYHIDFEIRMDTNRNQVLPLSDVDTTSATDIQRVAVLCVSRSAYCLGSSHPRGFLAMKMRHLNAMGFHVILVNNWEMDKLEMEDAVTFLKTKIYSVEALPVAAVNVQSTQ

[3] = target: protein kinases (human kinome) (Homo sapiens, UniProt Q9NYV4)
[4] = target: protein kinases (human kinome) (Homo sapiens, UniProt Q15119); conditions: experiment wp137
[5] = target: protein kinases (human kinome) (Homo sapiens, UniProt Q07912); conditions: for logFC TNK2 (Q07912-1): direction down; for logFC TNK2: TNK2 (Q07912-1)
[6] = Accession Q9NYV4-1, experiment wp016
[7] = Accession Q9NYV4-1, experiment wp131
[8] = CDK12 (Q9NYV4-1), experiment wp016
[9] = CDK12 (Q9NYV4-1), experiment wp131
[10] = Accession Q9NYV4-1, experiment wp146
[11] = CDK12 (Q9NYV4-1), experiment wp146

protein kinases (human kinome) (Homo sapiens, UniProt Q9NYV4), sequence (Q9NYV4 whole entry): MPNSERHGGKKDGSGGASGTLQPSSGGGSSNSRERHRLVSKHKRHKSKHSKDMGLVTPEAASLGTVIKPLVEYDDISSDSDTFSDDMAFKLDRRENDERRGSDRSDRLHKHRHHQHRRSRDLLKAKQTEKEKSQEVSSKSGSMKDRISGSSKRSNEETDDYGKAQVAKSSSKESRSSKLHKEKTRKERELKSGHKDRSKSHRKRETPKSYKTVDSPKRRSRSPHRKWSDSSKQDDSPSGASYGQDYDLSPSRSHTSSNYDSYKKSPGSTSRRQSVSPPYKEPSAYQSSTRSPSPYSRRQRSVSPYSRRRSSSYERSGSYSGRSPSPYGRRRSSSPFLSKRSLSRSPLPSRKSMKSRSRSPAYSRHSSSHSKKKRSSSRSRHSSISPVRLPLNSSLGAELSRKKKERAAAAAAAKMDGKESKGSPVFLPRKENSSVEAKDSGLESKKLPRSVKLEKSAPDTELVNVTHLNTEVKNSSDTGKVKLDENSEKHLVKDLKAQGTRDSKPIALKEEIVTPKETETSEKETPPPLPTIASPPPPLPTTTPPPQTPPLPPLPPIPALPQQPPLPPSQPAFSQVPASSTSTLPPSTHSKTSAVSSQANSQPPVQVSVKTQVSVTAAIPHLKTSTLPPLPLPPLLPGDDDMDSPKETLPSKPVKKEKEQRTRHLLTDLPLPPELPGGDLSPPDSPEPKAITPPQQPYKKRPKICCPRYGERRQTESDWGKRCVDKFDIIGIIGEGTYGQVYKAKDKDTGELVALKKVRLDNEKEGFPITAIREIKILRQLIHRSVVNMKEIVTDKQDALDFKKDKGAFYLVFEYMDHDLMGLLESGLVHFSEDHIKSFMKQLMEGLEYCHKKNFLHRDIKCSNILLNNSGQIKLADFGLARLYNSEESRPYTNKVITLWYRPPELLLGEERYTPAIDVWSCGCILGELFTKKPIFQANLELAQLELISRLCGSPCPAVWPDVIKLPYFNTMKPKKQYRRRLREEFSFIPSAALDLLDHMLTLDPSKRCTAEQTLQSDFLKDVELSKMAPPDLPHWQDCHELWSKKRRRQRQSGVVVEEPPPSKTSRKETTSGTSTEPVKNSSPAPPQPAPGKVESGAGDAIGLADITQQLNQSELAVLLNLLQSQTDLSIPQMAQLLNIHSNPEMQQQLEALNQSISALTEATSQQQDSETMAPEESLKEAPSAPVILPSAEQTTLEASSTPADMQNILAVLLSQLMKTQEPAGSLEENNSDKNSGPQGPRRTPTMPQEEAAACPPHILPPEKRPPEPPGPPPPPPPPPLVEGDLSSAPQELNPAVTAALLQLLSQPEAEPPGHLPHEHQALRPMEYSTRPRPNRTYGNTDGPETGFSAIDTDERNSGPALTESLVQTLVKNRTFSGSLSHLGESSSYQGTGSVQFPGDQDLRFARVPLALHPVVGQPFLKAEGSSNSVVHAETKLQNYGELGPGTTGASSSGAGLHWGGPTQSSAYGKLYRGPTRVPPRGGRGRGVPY
protein kinases (human kinome) (Homo sapiens, UniProt Q07912), sequence (Q07912 whole entry): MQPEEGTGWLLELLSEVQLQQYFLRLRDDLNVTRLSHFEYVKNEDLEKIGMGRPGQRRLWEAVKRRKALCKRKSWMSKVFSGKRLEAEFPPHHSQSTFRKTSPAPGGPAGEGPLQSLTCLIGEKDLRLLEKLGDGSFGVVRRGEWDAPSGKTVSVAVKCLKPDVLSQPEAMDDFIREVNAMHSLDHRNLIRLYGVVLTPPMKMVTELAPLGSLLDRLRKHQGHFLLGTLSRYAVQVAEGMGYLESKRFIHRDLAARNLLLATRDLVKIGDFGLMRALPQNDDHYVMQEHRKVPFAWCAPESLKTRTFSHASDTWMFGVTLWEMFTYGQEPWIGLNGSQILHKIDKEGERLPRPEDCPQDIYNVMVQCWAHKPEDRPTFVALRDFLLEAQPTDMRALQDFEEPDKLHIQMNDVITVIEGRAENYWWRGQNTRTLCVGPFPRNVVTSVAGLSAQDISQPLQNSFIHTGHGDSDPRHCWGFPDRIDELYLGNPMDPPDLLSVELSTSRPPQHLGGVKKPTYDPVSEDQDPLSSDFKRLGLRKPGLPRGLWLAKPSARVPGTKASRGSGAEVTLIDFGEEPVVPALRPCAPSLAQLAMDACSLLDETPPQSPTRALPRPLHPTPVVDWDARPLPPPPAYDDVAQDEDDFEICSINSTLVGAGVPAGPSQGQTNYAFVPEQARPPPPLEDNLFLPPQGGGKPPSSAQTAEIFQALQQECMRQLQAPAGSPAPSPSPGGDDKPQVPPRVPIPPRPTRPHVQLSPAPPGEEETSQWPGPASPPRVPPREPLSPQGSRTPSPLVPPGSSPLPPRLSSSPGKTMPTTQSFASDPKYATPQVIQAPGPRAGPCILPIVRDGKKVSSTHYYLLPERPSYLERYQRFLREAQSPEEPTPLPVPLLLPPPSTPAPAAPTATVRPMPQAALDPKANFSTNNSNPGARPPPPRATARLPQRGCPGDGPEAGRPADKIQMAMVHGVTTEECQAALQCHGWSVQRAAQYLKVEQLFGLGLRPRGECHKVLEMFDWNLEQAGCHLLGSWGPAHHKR
protein kinases (human kinome) (Homo sapiens, UniProt P53671), sequence (P53671 whole entry): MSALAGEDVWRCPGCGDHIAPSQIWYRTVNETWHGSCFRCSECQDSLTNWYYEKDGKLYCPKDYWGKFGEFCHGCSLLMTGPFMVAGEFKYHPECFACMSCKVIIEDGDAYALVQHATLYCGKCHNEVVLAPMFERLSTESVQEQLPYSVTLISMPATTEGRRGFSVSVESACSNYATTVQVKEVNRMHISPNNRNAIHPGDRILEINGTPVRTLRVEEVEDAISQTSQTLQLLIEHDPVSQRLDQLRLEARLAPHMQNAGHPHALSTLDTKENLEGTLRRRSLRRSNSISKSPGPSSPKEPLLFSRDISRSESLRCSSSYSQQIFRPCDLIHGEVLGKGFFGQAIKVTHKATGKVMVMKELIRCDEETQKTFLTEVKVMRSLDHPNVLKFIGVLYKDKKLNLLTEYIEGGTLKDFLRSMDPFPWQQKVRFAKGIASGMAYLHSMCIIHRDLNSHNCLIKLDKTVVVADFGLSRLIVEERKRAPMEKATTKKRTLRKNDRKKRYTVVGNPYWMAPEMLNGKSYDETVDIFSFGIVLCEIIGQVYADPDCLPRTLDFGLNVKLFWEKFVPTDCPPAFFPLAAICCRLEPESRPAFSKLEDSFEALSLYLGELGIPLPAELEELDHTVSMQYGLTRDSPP

CC(C)S(=O)(=O)c1ccccc1Nc1nc(Nc2ccc(N3CCN(CCOCCOCCNC(=O)CNc4cccc5c4C(=O)N(C4CCC(=O)NC4=O)C5=O)CC3)cc2)ncc1Cl (centres unmarked) [TL12.186]
logFC LIMK2 ([1]; experiment wp016): −0.7395 | logFC LIMK2 ([1]; experiment wp131): −1.323 | logFC LIMK2 ([1]; experiment wp137): −1.179 | logFC of LIMK2 ([1]; experiment wp016): −0.7395 | logFC of LIMK2 ([1]; experiment wp131): −1.323 | logFC of LIMK2 ([1]; experiment wp137): −1.179 | logFC FASTKD2 (Q9NYY8) [2]: −0.3625 | logFC CDK12 [3, 6]: −0.9185 | logFC CDK12 [3, 7]: −1.402 | logFC CDK12 [3, 8]: −0.9185 | logFC CDK12 [3, 9]: −1.402 | logFC PDK2 ([4]; Accession Q15119-1): −0.5022 | logFC PDK2 (Q15119-1) [4]: −0.5022 | logFC TNK2 (Q07912-1) ([5]; Experiment wp131): −2.251 | logFC TNK2 (Q07912-1) ([5]; Experiment wp137): −1.575 | logFC TNK2 ([5]; experiment wp131): −2.251 | logFC TNK2 ([5]; experiment wp137): −1.575

CS(=O)(=O)Nc1cccc(-c2csc3cnc(Nc4ccc(N5CCN(CCCCCOc6cccc7c6C(=O)N(C6CCC(=O)NC6=O)C7=O)CC5)cc4)nc23)c1 (centres unmarked) [DB0614, N-(3-(2-((4-(4-(5-((2-(2,6-Dioxopiperidin-3-yl)-1,3-dioxoisoindolin-4-yl)oxy)pentyl)piperazin-1-yl)phenyl)amino)thieno[3,2-d]pyrimidin-7-yl)phenyl)methanesulfonamide]
logFC LIMK2 ([1]; experiment wp045): −0.437 | logFC of LIMK2 ([1]; experiment wp045): −0.437

Cc1ccc(NC(=O)c2cccc(C(F)(F)F)c2)cc1N1Cc2cnc(Nc3ccc(N4CCN(CCCCC(=O)N[C@H](C(=O)N5C[C@H](O)C[C@H]5C(=O)N[C@@H](C)c5ccc(-c6scnc6C)cc5)C(C)(C)C)CC4)nc3)nc2N(C)C1=O [DB1113]
logFC TNK2 (Q07912-1) ([5]; Experiment wp168): −0.5351 | logFC TNK2 ([5]; experiment wp168): −0.5351

Cc1cc(Nc2ncc(Br)c(Nc3cccc(F)c3C(N)=O)n2)ccc1S(=O)(=O)NCCOCCOCCOCCOCCNc1cccc2c1C(=O)N(C1CCC(=O)NC1=O)C2=O (centres unmarked) [TMX.02.174]
logFC CDK12 [3, 10]: −0.8562 | logFC CDK12 [3, 11]: −0.8562

Cc1ncsc1-c1ccc([C@H](C)NC(=O)[C@@H]2C[C@@H](O)CN2C(=O)[C@@H](NC(=O)CCOCCOCCN2CCN(c3ccc(Nc4ncc(Cl)c(Nc5ccccc5S(=O)(=O)C(C)C)n4)cc3)CC2)C(C)(C)C)cc1 [FMF.06.098.1]
logFC LIMK2 ([1]; experiment wp108): −0.8226 | logFC LIMK2 ([1]; experiment wp114): −1.629 | logFC LIMK2 ([1]; experiment wp131): −1.077 | logFC of LIMK2 ([1]; experiment wp108): −0.8226 | logFC of LIMK2 ([1]; experiment wp114): −1.629 | logFC of LIMK2 ([1]; experiment wp131): −1.077 | logFC CDK12 [3, 7]: −0.5732 | logFC CDK12 [3, 9]: −0.5732 | logFC TNK2 (Q07912-1) ([5]; Experiment wp108): −0.5108 | logFC TNK2 (Q07912-1) ([5]; Experiment wp131): −0.5805 | logFC TNK2 ([5]; experiment wp108): −0.5108 | logFC TNK2 ([5]; experiment wp131): −0.5805

Cc1ccc(NC(=O)c2cccc(C(F)(F)F)c2)cc1N1Cc2cnc(Nc3ccc(N4CCN(Cc5cn(CCCCCOc6cccc7c6C(=O)N(C6CCC(=O)NC6=O)C7=O)nn5)CC4)nc3)nc2N(C)C1=O (centres unmarked) [DB0646, N-(3-(7-((6-(4-((1-(5-((2-(2,6-Dioxopiperidin-3-yl)-1,3-dioxoisoindolin-4-yl)oxy)pentyl)-1H-1,2,3-triazol-4-yl)methyl)piperazin-1-v)pyridin-3-yl)amino)-1-methyl-2-oxo-1,4-dihydropyrimido[4,5-d]pyrimidin-3(2H)-yl)-4-methylphenyl)-3-(trifluoromethyl)benzamide]
logFC LIMK2 ([1]; experiment wp045): −1.648 | logFC LIMK2 ([1]; experiment wp103): −1.569 | logFC LIMK2 ([1]; experiment wp107): −1.738 | logFC LIMK2 ([1]; experiment wp117): −1.565 | logFC LIMK2 ([1]; experiment wp152): −1.565 | logFC LIMK2 ([1]; experiment wp172): −1.095 | logFC of LIMK2 ([1]; experiment wp045): −1.648 | logFC of LIMK2 ([1]; experiment wp103): −1.569 | logFC of LIMK2 ([1]; experiment wp107): −1.738 | logFC of LIMK2 ([1]; experiment wp117): −1.565 | logFC of LIMK2 ([1]; experiment wp152): −1.565 | logFC of LIMK2 ([1]; experiment wp172): −1.095

Cc1ccc(NC(=O)c2cccc(C(F)(F)F)c2)cc1N1Cc2cnc(Nc3ccc(N4CCN(CCCCCCOc5cccc6c5C(=O)N(C5CCC(=O)NC5=O)C6=O)CC4)nc3)nc2N(C)C1=O (centres unmarked) [DB0663]
logFC LIMK2 ([1]; experiment wp045): −1.367 | logFC of LIMK2 ([1]; experiment wp045): −1.367

NC(=O)c1c(F)cccc1Nc1nc(Nc2ccc(S(=O)(=O)NCCOCCOCCOCCOCCNc3cccc4c3C(=O)N(C3CCC(=O)NC3=O)C4=O)cc2)ncc1Br (centres unmarked) [TMX.02.138]
logFC CDK12 [3, 10]: −1.018 | logFC CDK12 [3, 11]: −1.018

CS(=O)(=O)Nc1cccc(-c2csc3cnc(Nc4ccc(N5CCN(CCOCCOCCOc6cccc7c6C(=O)N(C6CCC(=O)NC6=O)C7=O)CC5)cc4)nc23)c1 (centres unmarked) [RSS0628]
logFC LIMK2 ([1]; experiment wp045): −0.7182 | logFC of LIMK2 ([1]; experiment wp045): −0.7182

Cc1ccc(NC(=O)c2cccc(C(F)(F)F)c2)cc1N1Cc2cnc(Nc3ccc(N4CCN(CCCOc5cccc6c5C(=O)N(C5CCC(=O)NC5=O)C6=O)CC4)nc3)nc2N(C)C1=O (centres unmarked) [DB0662]
logFC TNK2 (Q07912-1) ([5]; Experiment wp168): −0.6943 | logFC TNK2 ([5]; experiment wp168): −0.6943

CC(C)S(=O)(=O)c1ccccc1Nc1nc(Nc2ccc(N3CCN(CCOCCNC(=O)CNc4ccc5c(c4)C(=O)N(C4CCC(=O)NC4=O)C5=O)CC3)cc2)ncc1Cl (centres unmarked) [SK.3.93]
logFC LIMK2 ([1]; experiment wp016): −1.01 | logFC of LIMK2 ([1]; experiment wp016): −1.01 | logFC CDK12 [3, 6]: −0.9555 | logFC CDK12 [3, 8]: −0.9555

Nc1ncc(-c2ccc(S(=O)(=O)N(CCCNC(=O)CCOCCOCCOCCOCCOCCNc3cccc4c3C(=O)N(C3CCC(=O)NC3=O)C4=O)C3CC3)cc2)cc1-c1ccc2c(c1)CCNC2=O (centres unmarked) [WH.10417.099]
logFC LIMK2 ([1]; experiment wp103): −0.5747 | logFC LIMK2 ([1]; experiment wp107): −0.3744 | logFC of LIMK2 ([1]; experiment wp103): −0.5747 | logFC of LIMK2 ([1]; experiment wp107): −0.3744

CC(C)S(=O)(=O)c1ccccc1Nc1nc(Nc2ccc(N3CCN(CCOCCOCCC(=O)NCCNc4cccc5c4CN(C4CCC(=O)NC4=O)C5=O)CC3)cc2)ncc1Cl (centres unmarked) [TL13.97]
logFC LIMK2 ([1]; experiment wp137): −0.9054 | logFC of LIMK2 ([1]; experiment wp137): −0.9054 | logFC TNK2 (Q07912-1) ([5]; Experiment wp137): −1.971 | logFC TNK2 ([5]; experiment wp137): −1.971

Cc1ncsc1-c1ccc([C@H](C)NC(=O)[C@@H]2C[C@@H](O)CN2C(=O)[C@@H](NC(=O)CCCCCN2CCN(c3ccc(Nc4ncc5scc(-c6cccc(NS(C)(=O)=O)c6)c5n4)cc3)CC2)C(C)(C)C)cc1 [RSS0680, (2S,4R)-1-((S)-3,3-Dimethyl-2-(6-(4-(4-((7-(3-(methylsulfonamido)phenyl)thieno[3,2-d]pyrimidin-2-yl)amino)phenyl)piperazin-1-yl)hexanamido)butanoyl)-4-hydroxy-N—((S)-1-(4-(4-methylthiazol-5yl)phenyl)ethyl)pyrrolidine-2-carboxamide]
logFC LIMK2 ([1]; experiment wp080): −0.8809 | logFC LIMK2 ([1]; experiment wp117): −1.109 | logFC of LIMK2 ([1]; experiment wp080): −0.8809 | logFC of LIMK2 ([1]; experiment wp117): −1.109
